From the kinase profiling compilation of Christmann-Franck et al. (2016)

How the values were obtained:
Experiment in all cases: KINOMEscan competition binding
Settings in all cases: compound 10.0 µM
[1] = target: CSNK1G2 (human) (UniProt P78368)
[2] = system: PIK3CA (human), P42336 [H1047Y]
[3] = target: CDK3 (human) (UniProt Q00526)
[4] = target: KDR (human) (UniProt P35968)
[5] = target: STK17B (human) (UniProt O94768)
[6] = target: BRSK1 (human) (UniProt Q8TDC3)
[7] = target: MARK4 (human) (UniProt Q96L34)
[8] = target: ALK (human) (UniProt Q9UM73)
[9] = target: INSR (human) (UniProt P06213)
[10] = target: MAST1 (human) (UniProt Q9Y2H9)
[11] = target: MAP3K6 (human) (UniProt O95382)
[12] = system: FLT3 (human), P36888 [N841I]
[13] = system: ABL1 (human), P00519 [F317L]
[14] = target: RPS6KA4 KD2 (human) (UniProt O75676)
[15] = target: ITK (human) (UniProt Q08881)
[16] = target: DDR1 (human) (UniProt Q08345)
[17] = target: CSNK1G1 (human) (UniProt Q9HCP0)
[18] = system: FLT3 (human), P36888 [D835Y]
[19] = system: ABL1 (human), P00519 [Y253F]
[20] = target: MAPK13 (human) (UniProt O15264)
[21] = target: NTRK3 (human) (UniProt Q16288)
[22] = system: FLT3 (human), P36888 [ITD]
[23] = target: IGF1R (human) (UniProt P08069)
[24] = target: TEC (human) (UniProt P42680)
Chain of TEC (human) (P42680 whole entry, looked up): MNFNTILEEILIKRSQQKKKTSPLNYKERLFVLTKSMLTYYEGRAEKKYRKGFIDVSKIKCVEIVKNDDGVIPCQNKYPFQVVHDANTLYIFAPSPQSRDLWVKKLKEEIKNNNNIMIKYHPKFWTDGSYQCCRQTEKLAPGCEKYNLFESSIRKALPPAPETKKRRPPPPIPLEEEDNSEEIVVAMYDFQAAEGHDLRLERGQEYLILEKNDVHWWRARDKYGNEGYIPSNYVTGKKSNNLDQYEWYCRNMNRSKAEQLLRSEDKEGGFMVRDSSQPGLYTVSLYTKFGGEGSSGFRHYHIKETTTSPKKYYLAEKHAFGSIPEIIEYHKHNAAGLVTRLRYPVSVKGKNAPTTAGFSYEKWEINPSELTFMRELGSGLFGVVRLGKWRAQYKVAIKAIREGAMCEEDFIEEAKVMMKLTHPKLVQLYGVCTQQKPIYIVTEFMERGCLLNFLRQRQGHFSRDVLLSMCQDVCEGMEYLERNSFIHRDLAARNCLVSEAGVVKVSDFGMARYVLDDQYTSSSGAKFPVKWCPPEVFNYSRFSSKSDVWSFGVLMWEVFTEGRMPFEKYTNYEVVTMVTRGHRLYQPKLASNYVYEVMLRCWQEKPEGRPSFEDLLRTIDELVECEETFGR

[25] = target: PIK3CD (human) (UniProt O00329)
[26] = system: KIT (human), P10721 [D816V]
Chain of KIT (human), P10721 [D816V] (P10721 whole entry D816V, looked up): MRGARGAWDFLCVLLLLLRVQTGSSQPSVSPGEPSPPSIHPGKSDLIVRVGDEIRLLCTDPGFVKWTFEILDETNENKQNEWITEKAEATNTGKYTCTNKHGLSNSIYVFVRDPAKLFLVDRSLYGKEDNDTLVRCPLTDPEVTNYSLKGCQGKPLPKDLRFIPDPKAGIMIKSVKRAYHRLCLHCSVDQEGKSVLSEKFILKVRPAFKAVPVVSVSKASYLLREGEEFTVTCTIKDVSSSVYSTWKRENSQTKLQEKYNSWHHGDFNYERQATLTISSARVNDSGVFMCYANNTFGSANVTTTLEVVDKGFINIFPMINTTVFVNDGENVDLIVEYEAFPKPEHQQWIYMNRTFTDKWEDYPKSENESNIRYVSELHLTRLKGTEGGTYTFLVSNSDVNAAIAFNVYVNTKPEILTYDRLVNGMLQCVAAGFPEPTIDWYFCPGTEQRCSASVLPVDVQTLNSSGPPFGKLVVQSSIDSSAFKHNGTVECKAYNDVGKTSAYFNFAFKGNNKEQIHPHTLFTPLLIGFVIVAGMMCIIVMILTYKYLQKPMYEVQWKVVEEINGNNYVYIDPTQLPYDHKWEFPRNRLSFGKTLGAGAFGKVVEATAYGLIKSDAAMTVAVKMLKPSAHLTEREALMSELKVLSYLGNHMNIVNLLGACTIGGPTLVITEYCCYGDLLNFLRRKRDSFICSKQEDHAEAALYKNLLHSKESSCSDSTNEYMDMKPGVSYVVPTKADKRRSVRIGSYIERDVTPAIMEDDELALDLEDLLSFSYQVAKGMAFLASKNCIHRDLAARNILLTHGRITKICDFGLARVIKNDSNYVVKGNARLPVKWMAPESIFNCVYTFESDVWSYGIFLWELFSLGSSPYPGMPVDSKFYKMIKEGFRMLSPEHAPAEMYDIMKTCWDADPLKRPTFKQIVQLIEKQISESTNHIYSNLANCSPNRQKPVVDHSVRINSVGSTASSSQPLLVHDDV

[27] = target: WEE2 (human) (UniProt P0C1S8)
[28] = system: RET (human), P07949 [V804M]
[29] = target: TYRO3 (human) (UniProt Q06418)
[30] = target: EPHA8 (human) (UniProt P29322)
[31] = target: SIK2 (human) (UniProt Q9H0K1)
[32] = target: CAMK2A (human) (UniProt Q9UQM7)
[33] = target: MAP3K2 (human) (UniProt Q9Y2U5)
[34] = target: PIK3C2B (human) (UniProt O00750)
[35] = target: STK36 (human) (UniProt Q9NRP7)
[36] = target: FGR (human) (UniProt P09769)
[37] = target: MAP4K3 (human) (UniProt Q8IVH8)
Chain of MAP4K3 (human) (Q8IVH8 whole entry, looked up): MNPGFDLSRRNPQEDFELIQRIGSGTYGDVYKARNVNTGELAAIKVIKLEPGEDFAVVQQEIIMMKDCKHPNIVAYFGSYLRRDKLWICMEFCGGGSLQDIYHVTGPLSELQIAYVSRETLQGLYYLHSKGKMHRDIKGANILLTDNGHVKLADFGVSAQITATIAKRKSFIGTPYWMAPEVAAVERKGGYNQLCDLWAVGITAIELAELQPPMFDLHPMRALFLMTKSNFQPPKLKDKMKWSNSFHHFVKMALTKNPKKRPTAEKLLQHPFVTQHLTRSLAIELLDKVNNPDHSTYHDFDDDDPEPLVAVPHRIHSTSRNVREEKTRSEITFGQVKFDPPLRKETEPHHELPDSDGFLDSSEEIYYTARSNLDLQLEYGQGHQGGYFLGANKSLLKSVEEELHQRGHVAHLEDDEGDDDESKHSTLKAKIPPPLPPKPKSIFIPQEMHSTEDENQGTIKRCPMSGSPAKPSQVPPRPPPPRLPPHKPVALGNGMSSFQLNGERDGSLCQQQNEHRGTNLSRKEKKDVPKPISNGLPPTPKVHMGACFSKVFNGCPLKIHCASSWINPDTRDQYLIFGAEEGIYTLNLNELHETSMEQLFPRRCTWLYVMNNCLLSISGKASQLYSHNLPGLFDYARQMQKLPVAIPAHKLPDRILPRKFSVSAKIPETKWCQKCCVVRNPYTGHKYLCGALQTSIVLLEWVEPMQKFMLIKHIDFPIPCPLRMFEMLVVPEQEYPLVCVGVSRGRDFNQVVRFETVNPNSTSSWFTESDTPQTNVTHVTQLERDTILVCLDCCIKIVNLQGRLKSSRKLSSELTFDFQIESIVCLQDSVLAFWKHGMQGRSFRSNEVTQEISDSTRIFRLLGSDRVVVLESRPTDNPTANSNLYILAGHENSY

[38] = target: BMPR2 (human) (UniProt Q13873)
[39] = target: CDK15 (human) (UniProt Q96Q40)
[40] = target: EPHA7 (human) (UniProt Q15375)
[41] = target: MAPK9 (human) (UniProt P45984)
[42] = target: MAPKAPK5 (human) (UniProt Q8IW41)
Chain of MAPKAPK5 (human) (Q8IW41 whole entry, looked up): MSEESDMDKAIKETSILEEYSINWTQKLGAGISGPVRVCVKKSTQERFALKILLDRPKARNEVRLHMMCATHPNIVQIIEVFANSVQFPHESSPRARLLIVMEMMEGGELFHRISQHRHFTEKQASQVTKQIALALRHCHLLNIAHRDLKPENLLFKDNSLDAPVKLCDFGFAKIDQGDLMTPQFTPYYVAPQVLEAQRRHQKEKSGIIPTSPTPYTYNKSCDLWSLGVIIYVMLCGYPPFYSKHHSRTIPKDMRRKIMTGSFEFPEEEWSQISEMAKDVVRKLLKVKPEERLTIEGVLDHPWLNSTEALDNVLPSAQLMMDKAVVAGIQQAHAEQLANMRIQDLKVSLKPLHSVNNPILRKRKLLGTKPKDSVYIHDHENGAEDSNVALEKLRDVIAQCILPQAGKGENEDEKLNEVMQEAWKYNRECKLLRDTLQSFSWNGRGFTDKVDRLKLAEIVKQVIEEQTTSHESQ

Chain of CDK3 (human) (Q00526 whole entry, looked up): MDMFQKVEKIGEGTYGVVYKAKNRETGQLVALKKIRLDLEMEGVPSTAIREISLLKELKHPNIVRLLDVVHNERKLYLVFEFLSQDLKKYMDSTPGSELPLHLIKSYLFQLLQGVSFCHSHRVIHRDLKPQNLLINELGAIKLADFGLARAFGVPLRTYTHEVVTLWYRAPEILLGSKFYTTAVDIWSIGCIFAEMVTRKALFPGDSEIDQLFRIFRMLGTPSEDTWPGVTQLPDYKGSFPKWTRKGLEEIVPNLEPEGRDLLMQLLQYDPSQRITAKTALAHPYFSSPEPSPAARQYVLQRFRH
Chain of BRSK1 (human) (Q8TDC3 whole entry, looked up): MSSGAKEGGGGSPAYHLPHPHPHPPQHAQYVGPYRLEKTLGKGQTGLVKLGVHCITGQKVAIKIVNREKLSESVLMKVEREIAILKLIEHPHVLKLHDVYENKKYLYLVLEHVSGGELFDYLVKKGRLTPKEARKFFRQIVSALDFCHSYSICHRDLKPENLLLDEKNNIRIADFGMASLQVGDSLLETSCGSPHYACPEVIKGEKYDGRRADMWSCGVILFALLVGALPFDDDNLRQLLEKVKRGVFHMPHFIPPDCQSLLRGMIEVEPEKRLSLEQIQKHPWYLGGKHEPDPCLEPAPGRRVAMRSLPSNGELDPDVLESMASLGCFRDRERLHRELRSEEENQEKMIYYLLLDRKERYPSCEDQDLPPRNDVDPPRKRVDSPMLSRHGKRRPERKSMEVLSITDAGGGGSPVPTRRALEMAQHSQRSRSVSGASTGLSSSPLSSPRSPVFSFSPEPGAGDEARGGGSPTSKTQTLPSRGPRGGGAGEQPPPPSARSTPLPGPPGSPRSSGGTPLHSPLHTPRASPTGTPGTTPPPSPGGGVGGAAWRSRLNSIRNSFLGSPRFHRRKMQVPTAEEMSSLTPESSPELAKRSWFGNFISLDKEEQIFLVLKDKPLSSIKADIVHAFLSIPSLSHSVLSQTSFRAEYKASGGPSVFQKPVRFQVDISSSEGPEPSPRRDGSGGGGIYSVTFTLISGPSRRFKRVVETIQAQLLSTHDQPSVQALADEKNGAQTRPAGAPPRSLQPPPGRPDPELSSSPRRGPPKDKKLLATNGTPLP
Chain of STK17B (human) (O94768 whole entry, looked up): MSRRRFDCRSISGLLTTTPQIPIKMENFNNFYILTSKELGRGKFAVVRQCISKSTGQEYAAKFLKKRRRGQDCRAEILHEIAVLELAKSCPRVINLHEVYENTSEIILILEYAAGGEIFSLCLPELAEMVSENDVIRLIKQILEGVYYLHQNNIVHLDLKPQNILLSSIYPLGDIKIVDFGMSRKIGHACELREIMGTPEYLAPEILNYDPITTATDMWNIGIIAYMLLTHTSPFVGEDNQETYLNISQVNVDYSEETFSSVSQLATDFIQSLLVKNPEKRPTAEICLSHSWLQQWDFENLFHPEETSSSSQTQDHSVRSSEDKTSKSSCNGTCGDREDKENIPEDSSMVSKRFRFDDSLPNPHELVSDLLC
Chain of CSNK1G2 (human) (P78368 whole entry, looked up): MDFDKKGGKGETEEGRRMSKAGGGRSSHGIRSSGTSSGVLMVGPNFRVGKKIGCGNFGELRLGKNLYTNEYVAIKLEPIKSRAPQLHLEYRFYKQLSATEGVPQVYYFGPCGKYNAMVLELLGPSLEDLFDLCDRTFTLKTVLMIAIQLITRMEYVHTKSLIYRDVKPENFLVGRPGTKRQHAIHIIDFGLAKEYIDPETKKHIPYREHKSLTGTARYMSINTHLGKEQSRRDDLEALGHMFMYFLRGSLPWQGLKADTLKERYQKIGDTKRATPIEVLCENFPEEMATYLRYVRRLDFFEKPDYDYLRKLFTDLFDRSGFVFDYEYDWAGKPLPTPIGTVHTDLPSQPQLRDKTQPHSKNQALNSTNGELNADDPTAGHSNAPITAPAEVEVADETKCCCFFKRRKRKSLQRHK

Compound: Cc1cnc(-c2cnc(NCCNc3ccc(C#N)cn3)nc2-c2ccc(Cl)cc2Cl)[nH]1
- kinase still bound, per cent of control [1]: 59%
- kinase still bound, per cent of control [2]: 69%
- kinase still bound, per cent of control [3]: 89%
- kinase still bound, per cent of control [4]: 100%
- kinase still bound, per cent of control [5]: 84%
- kinase still bound, per cent of control [6]: 100%
- kinase still bound, per cent of control [7]: 100%
- kinase still bound, per cent of control [8]: 100%
- kinase still bound, per cent of control [9]: 100%
- kinase still bound, per cent of control [10]: 79%
- kinase still bound, per cent of control [11]: 80%
- kinase still bound, per cent of control [12]: 75%
- kinase still bound, per cent of control [13]: 100%
- kinase still bound, per cent of control [14]: 80%
- kinase still bound, per cent of control [15]: 100%
- kinase still bound, per cent of control [16]: 100%
- kinase still bound, per cent of control [17]: 49%
- kinase still bound, per cent of control [18]: 46%
- kinase still bound, per cent of control [19]: 100%
- kinase still bound, per cent of control [20]: 100%
- kinase still bound, per cent of control [21]: 100%
- kinase still bound, per cent of control [22]: 74%
- kinase still bound, per cent of control [23]: 100%
- kinase still bound, per cent of control [24]: 100%
- kinase still bound, per cent of control [25]: 93%
- kinase still bound, per cent of control [26]: 100%
- kinase still bound, per cent of control [27]: 100%
- kinase still bound, per cent of control [28]: 90%
- kinase still bound, per cent of control [29]: 100%
- kinase still bound, per cent of control [30]: 100%
- kinase still bound, per cent of control [31]: 100%
- kinase still bound, per cent of control [32]: 89%
- kinase still bound, per cent of control [33]: 93%
- kinase still bound, per cent of control [34]: 91%
- kinase still bound, per cent of control [35]: 42%
- kinase still bound, per cent of control [36]: 100%
- kinase still bound, per cent of control [37]: 96%
- kinase still bound, per cent of control [38]: 90%
- kinase still bound, per cent of control [39]: 95%
- kinase still bound, per cent of control [40]: 100%
- kinase still bound, per cent of control [41]: 87%
- kinase still bound, per cent of control [42]: 96%
